Assay results: publication PMC12587545, “Noncytotoxic polymyxin derivatives enhance antibiotic action against multidrug-resistant Gram-negative bacteria” (Antimicrobial Agents and Chemotherapy, 2025)
Where “and” joins values, the source holds several entries; their conditions need not be identical. Equal entries are not always repeated.

How the values were obtained:
Assay in all cases: Checkerboard assay (antibiotic potentiation)
P. aeruginosa = type: cell-based, Pseudomonas aeruginosa
K. pneumoniae = type: cell-based, Klebsiella pneumoniae; conditions: for MICantibiotic + compound: antibiotic MIC with 8 µg/mL (5 µM) compound 1; for MICantibiotic: antibiotic alone; for Potentiation: of antibiotic by 8 µg/mL (5 µM) compound 1
E. coli = type: cell-based, Escherichia coli; conditions: for Interpretation: antibiotic + compound 1; for MICantibiotic + compound: antibiotic MIC with 8 µg/mL (5 µM) compound 1; for MICantibiotic: antibiotic alone; for Potentiation: of antibiotic by 8 µg/mL (5 µM) compound 1
E. cloacae = type: cell-based, Enterobacter cloacae; conditions: E. cloacae 121887 (colistin-resistant)
[1] = P. aeruginosa 264-105354, antibiotic + compound 1
[2] = P. aeruginosa PAO1, 0% FBS, zoliflodacin + compound 1
[3] = P. aeruginosa PAO1, [Mg2+] 0.4–0.5 mM, zoliflodacin + compound 1
[4] = P. aeruginosa PAO1, antibiotic + compound 1
[5] = K. pneumoniae 113250 (colistin-resistant)
[6] = K. pneumoniae 116381, antibiotic + compound 1
[7] = E. coli 94393 (colistin-resistant)
[8] = E. coli 94474 (colistin-resistant)

## C[C@@H]1CN2c3c(cc4c(N5C(=O)OC[C@@H]5C)noc4c3F)CC3(C(=O)NC(=O)NC3=O)[C@H]2[C@H](C)O1 [Zoliflodacin]
P. aeruginosa; P. aeruginosa 262-101856, antibiotic + compound 1
  Interpretation: Synergy (FIC indices of ≤0.5 is synergistic)
P. aeruginosa; P. aeruginosa 262-101856, antibiotic MIC with 8 µg/mL (5 µM) compound 1
  MICantibiotic + compound: 2 µg/mL
P. aeruginosa; P. aeruginosa 262-101856, antibiotic alone
  MICantibiotic: >128 µg/mL
P. aeruginosa; P. aeruginosa 262-101856, of antibiotic by 8 µg/mL (5 µM) compound 1
  Potentiation: ≥128-fold
P. aeruginosa; [1]
  FIC index: x < 0.066
  Interpretation: Synergy (FIC indices of ≤0.5 is synergistic)
P. aeruginosa; P. aeruginosa 264-105354, antibiotic MIC with 8 µg/mL (5 µM) compound 1
  MICantibiotic + compound: 0.5 µg/mL
P. aeruginosa; P. aeruginosa 264-105354, antibiotic alone
  MICantibiotic: >128 µg/mL
P. aeruginosa; P. aeruginosa 264-105354, of antibiotic by 8 µg/mL (5 µM) compound 1
  Potentiation: ≥512-fold
P. aeruginosa; P. aeruginosa 101243 (colistin-resistant), antibiotic MIC with 8 µg/mL (5 µM) compound 1
  MICantibiotic + compound: >128 µg/mL
P. aeruginosa; P. aeruginosa 101243 (colistin-resistant), antibiotic alone
  MICantibiotic: >128 µg/mL
P. aeruginosa; P. aeruginosa 114228 (colistin-resistant), antibiotic MIC with 8 µg/mL (5 µM) compound 1
  MICantibiotic + compound: >128 µg/mL
P. aeruginosa; P. aeruginosa 114228 (colistin-resistant), antibiotic alone
  MICantibiotic: >128 µg/mL
P. aeruginosa; P. aeruginosa PAO1, 0% FBS, of zoliflodacin by 8 µg/mL (5 µM) compound 1
  Potentiation: ≥32-fold
P. aeruginosa; [2]
  FIC index: x < 0.125
  Interpretation: Synergy (FIC indices of ≤0.5 is synergistic)
P. aeruginosa; P. aeruginosa PAO1, 0% FBS, zoliflodacin MIC with 8 µg/mL (5 µM) compound 1
  MICantibiotic + compound: 8 µg/mL
P. aeruginosa; P. aeruginosa PAO1, 0% FBS, zoliflodacin alone
  MICantibiotic: >128 µg/mL
P. aeruginosa; P. aeruginosa PAO1, 10% FBS, of zoliflodacin by 8 µg/mL (5 µM) compound 1
  Potentiation: 64 fold
P. aeruginosa; P. aeruginosa PAO1, 10% FBS, zoliflodacin + compound 1
  Interpretation: Synergy (FIC indices of ≤0.5 is synergistic)
P. aeruginosa; P. aeruginosa PAO1, 10% FBS, zoliflodacin MIC with 8 µg/mL (5 µM) compound 1
  MICantibiotic + compound: 8 µg/mL
P. aeruginosa; P. aeruginosa PAO1, 10% FBS, zoliflodacin alone
  MICantibiotic: 512 µg/mL
P. aeruginosa; P. aeruginosa PAO1, 25% FBS, of zoliflodacin by 8 µg/mL (5 µM) compound 1
  Potentiation: 1 fold
P. aeruginosa; P. aeruginosa PAO1, 25% FBS, zoliflodacin + compound 1
  Interpretation: Additive (0.5 < × ≤ 4 is additive)
P. aeruginosa; P. aeruginosa PAO1, 25% FBS, zoliflodacin MIC with 8 µg/mL (5 µM) compound 1
  MICantibiotic + compound: 1024 µg/mL
P. aeruginosa; P. aeruginosa PAO1, 25% FBS, zoliflodacin alone
  MICantibiotic: 1024 µg/mL
P. aeruginosa; P. aeruginosa PAO1, 50% FBS, of zoliflodacin by 8 µg/mL (5 µM) compound 1
  Potentiation: 1 fold
P. aeruginosa; P. aeruginosa PAO1, 50% FBS, zoliflodacin + compound 1
  Interpretation: Additive (0.5 < × ≤ 4 is additive)
P. aeruginosa; P. aeruginosa PAO1, 50% FBS, zoliflodacin MIC with 8 µg/mL (5 µM) compound 1
  MICantibiotic + compound: 1024 µg/mL
P. aeruginosa; P. aeruginosa PAO1, 50% FBS, zoliflodacin alone
  MICantibiotic: 1024 µg/mL
P. aeruginosa; P. aeruginosa PAO1, [Mg2+] 25 mM, of zoliflodacin by 8 µg/mL (5 µM) compound 1
  Potentiation: 1 fold
P. aeruginosa; P. aeruginosa PAO1, [Mg2+] 25 mM, zoliflodacin + compound 1
  Interpretation: Additive (0.5 < × ≤ 4 is additive)
P. aeruginosa; P. aeruginosa PAO1, [Mg2+] 25 mM, zoliflodacin MIC with 8 µg/mL (5 µM) compound 1
  MICantibiotic + compound: 1024 µg/mL
P. aeruginosa; P. aeruginosa PAO1, [Mg2+] 25 mM, zoliflodacin alone
  MICantibiotic: 1024 µg/mL
P. aeruginosa; P. aeruginosa PAO1, [Mg2+] 0.4–0.5 mM, of zoliflodacin by 8 µg/mL (5 µM) compound 1
  Potentiation: ≥32-fold
P. aeruginosa; [3]
  FIC index: x < 0.125
  Interpretation: Synergy (FIC indices of ≤0.5 is synergistic)
P. aeruginosa; P. aeruginosa PAO1, [Mg2+] 0.4–0.5 mM, zoliflodacin MIC with 8 µg/mL (5 µM) compound 1
  MICantibiotic + compound: 8 µg/mL
P. aeruginosa; P. aeruginosa PAO1, [Mg2+] 0.4–0.5 mM, zoliflodacin alone
  MICantibiotic: >128 µg/mL
P. aeruginosa; [4]
  FIC index: x < 0.125
  Interpretation: Synergy (FIC indices of ≤0.5 is synergistic)
P. aeruginosa; P. aeruginosa PAO1, antibiotic + compound 3
  Interpretation: Additive (0.5 < × ≤ 4 is additive)
P. aeruginosa; P. aeruginosa PAO1, antibiotic MIC with 8 µg/mL (5 µM) compound 1
  MICantibiotic + compound: 8 µg/mL
P. aeruginosa; P. aeruginosa PAO1, antibiotic MIC with 8 µg/mL (5 µM) compound 3
  MICantibiotic + compound: 128 µg/mL
P. aeruginosa; P. aeruginosa PAO1, antibiotic alone
  MICantibiotic: 128 µg/mL and >128 µg/mL
P. aeruginosa; P. aeruginosa PAO1, of antibiotic by 8 µg/mL (5 µM) compound 1
  Potentiation: ≥32-fold
P. aeruginosa; P. aeruginosa PAO1, of antibiotic by 8 µg/mL (5 µM) compound 3
  Potentiation: 1 fold
K. pneumoniae; K. pneumoniae 113250 (colistin-resistant), antibiotic + compound 1
  Interpretation: Synergy (FIC indices of ≤0.5 is synergistic)
K. pneumoniae; [5]
  MICantibiotic + compound: 4 µg/mL
  MICantibiotic: 128 µg/mL
  Potentiation: 32 fold
K. pneumoniae; [6]
  FIC index: 0.063
  Interpretation: Synergy (FIC indices of ≤0.5 is synergistic)
K. pneumoniae; K. pneumoniae 116381
  MICantibiotic + compound: 0.25 µg/mL
  MICantibiotic: 256 µg/mL
  Potentiation: ≥512-fold
E. coli; [7]
  Interpretation: Synergy (FIC indices of ≤0.5 is synergistic)
  MICantibiotic + compound: 2 µg/mL
  MICantibiotic: 64 µg/mL
  Potentiation: 32 fold
E. coli; [8]
  Interpretation: Synergy (FIC indices of ≤0.5 is synergistic)
  MICantibiotic + compound: 4 µg/mL
  MICantibiotic: 64 µg/mL
  Potentiation: 16 fold
E. cloacae; antibiotic + compound 1
  Interpretation: Synergy (FIC indices of ≤0.5 is synergistic)
E. cloacae; antibiotic MIC with 8 µg/mL (5 µM) compound 1
  MICantibiotic + compound: 4 µg/mL
E. cloacae; antibiotic alone
  MICantibiotic: 32 µg/mL
E. cloacae; of antibiotic by 8 µg/mL (5 µM) compound 1
  Potentiation: 8 fold
